ChEMBL document CHEMBL1938360, “6-Amino quinazolinedione sulfonamides as orally active competitive AMPA receptor antagonists” (Bioorg Med Chem Lett, 2012)
Calls of active or inactive are those of the source. No cut-off for these calls is given here.

Legend:
[1] = Displacement of [3H]CNQX from AMPA receptor on rat brain homogenate; format: tissue-based
Mus musculus [2] = assay: Anticonvulsant activity in DBA/2 mouse assessed as protection from audiogenic seizures at 30 mg/kg, ip measured 1 hr post administration; format: functional, organism-based; set-up: dose 30 mg/kg
Mus musculus [3] = assay: Anticonvulsant activity in DBA/2 mouse assessed as protection from audiogenic seizures at 30 mg/kg, po measured 1 hr post administration; format: functional
Mus musculus [4] = assay: Anticonvulsant activity in intraperitoneally dosed DBA/2 mouse assessed as protection from tonic seizures measured 1 hr post administration; format: functional; conditions: DBA/2, ip
[5] = Oral bioavailability in DBA/2 mouse at 30 mg/kg; format: ADME, organism-based; conditions: in vivo
[6] = Clearance in DBA/2 mouse at 30 mg/kg; format: ADME, organism-based; set-up: dose 30 mg/kg; conditions: in vivo
Mus musculus [7] = assay: Anticonvulsant activity against po dosed electric-shock mouse model assessed as inhibition of convulsion in hind legs measured 2 hrs post administration; format: functional
Mus musculus [8] = assay: Anticonvulsant activity against po dosed electric-shock mouse model assessed as inhibition of convulsion in hind legs at 50 mg/kg, po measured 4 hrs post administration; format: functional
Mus musculus [9] = assay: Anticonvulsant activity in orally dosed DBA/2 mouse assessed as protection from tonic seizures measured 1 hr post administration; conditions: DBA/2, po
Mus musculus [10] = assay: Anticonvulsant activity in DBA/2 mouse assessed as protection from audiogenic seizures at 10 mg/kg, po measured 1 hr post administration; format: functional

IC50 [1] | bioavailability [5] | SMILES | Activity (Mus musculus [3]) | further results
0.165 µM | – | CS(=O)(=O)Nn1c(=O)[nH]c2cc(C(F)(F)F)c(-n3cccc3)cc2c1=O | – | –
0.046 µM | 10% | CS(=O)(=O)Nn1c(=O)[nH]c2cc(C(F)(F)F)c(-n3cnnc3)cc2c1=O | inactive | Activity (Mus musculus [2]): Active; ED50 (Mus musculus [4]): 0.94 mg/kg
0.11 µM | – | CNC(=O)c1ncn(-c2cc3c(=O)n(NS(C)(=O)=O)c(=O)[nH]c3cc2C(F)(F)F)n1 | – | –
0.5 µM | 100% | CS(=O)(=O)Nn1c(=O)[nH]c2cc(C(F)(F)F)c(N3CCOCC3)cc2c1=O | – | ED50 (Mus musculus [4]): 58 mg/kg; clearance [6]: 135 mL/min/kg
1.2 µM | – | CS(=O)(=O)Nn1c(=O)[nH]c2cc(C(F)(F)F)c(N)cc2c1=O | – | –
0.081 µM | – | CS(=O)(=O)Nn1c(=O)[nH]c2cc([N+](=O)[O-])c(-n3ccnc3)cc2c1=O | inactive | Activity (Mus musculus [2]): Active
1 µM | – | CCNc1cc2c(=O)n(NS(C)(=O)=O)c(=O)[nH]c2cc1C(F)(F)F | 53% | –
0.36 µM | 100% | CS(=O)(=O)Nn1c(=O)[nH]c2cc(C(F)(F)F)c(N3CCCOCC3)cc2c1=O | – | clearance [6]: 10.2 mL/min/kg; ED50 (Mus musculus [7]): 10.5 mg/kg; inhibition in vivo at 50 mg/kg (Mus musculus [8]): 20%; ED50 (Mus musculus [9]): 5.5 mg/kg
0.42 µM | – | CN(C)C(=O)c1cn(-c2cc3c(=O)n(NS(C)(=O)=O)c(=O)[nH]c3cc2C(F)(F)F)cn1 | – | –
– | 10% | CNC(=O)c1cn(-c2cc3c(=O)n(NS(C)(=O)=O)c(=O)[nH]c3cc2C(F)(F)F)cn1 | inactive | Activity (Mus musculus [2]): Active
0.55 µM | – | CS(=O)(=O)Nn1c(=O)[nH]c2cc(C(F)(F)F)c(NCCO)cc2c1=O | – | Activity (Mus musculus [10]): 20%
0.044 µM | – | CS(=O)(=O)Nn1c(=O)[nH]c2cc(C(F)(F)F)c(-n3ccnc3)cc2c1=O | inactive | Activity (Mus musculus [2]): Active
0.25 µM | 100% | CN(CCO)c1cc2c(=O)n(NS(C)(=O)=O)c(=O)[nH]c2cc1C(F)(F)F | – | ED50 (Mus musculus [4]): 7.9 mg/kg; clearance [6]: 49 mL/min/kg
1.02 µM | – | CN(C)C(=O)c1ncn(-c2cc3c(=O)n(NS(C)(=O)=O)c(=O)[nH]c3cc2C(F)(F)F)n1 | – | –
